# Measurements published in patent US11911413B2, “Methods and compositions for the treatment of pain and/or inflammation” (Proteobioactives Pty Limited, priority 2018, dated 2024).
# Assays:
# patients with hand OA = experiment: Double-blind comparator clinical trial Pentabrex vs celecoxib, hand OA (Example 7); assay type: in vivo, human
# Source text: (§1) A prospective, dose ranging, double-blind, comparator clinical trial to evaluate the tolerability and efficacy of Pentabrex™, (Proteobioactives Pty Ltd, Balgowlah, NSW, Australia) compared to celecoxib, for the relief of symptoms in elderly patients with OA of the hand and knee conducted at the Subiaco Rheumatology Clinic, Subiaco, Perth, WA, Australia.
# (§2) Thirty three male and female patients with symptomatic hand or knee OA were obtained from referrals sent by general medical practitioners located in Perth (Western Australia) suburbs. […] To be included in the clinical trial, patients had to be 50 years of age or older and have an OA grade of 3-4 (Kellgren J H, Lawrence J S. Radiological assessment of osteoarthrosis. Annals Rheumatic Dis.1957; 16:494-502) that had been symptomatic for at least 6 months prior to their inclusion. If a patient had pain in both knees or both hands, the more painful knee or hand was the joint used for assessment. If patients had both hand and knee OA each most painful joint was assessed separately.
# (§3) Patients with rheumatoid arthritis or any other rheumatic condition that required the continuous administration of a second line rheumatic agent such as methotrexate, steroid or cytokine antagonist, had current bleeding diathesis or were receiving treatment with blood thinners (such as warfarin), or had any significant medical conditions involving the liver, kidney, or their motor or nervous systems were excluded from the trial.
# (§4) Although patients were requested not to consume additional analgesics or NSAIDs over the duration of the study, if they found this to be too difficult because of the unacceptable level of pain they experienced, they were required to document the drugs and quantities they used for relief of pain in a six week daily diary that supplied with the clinical trial test package manufactured by the compounding chemist (Kingsway, Brookvale NSW 2100, Australia). Failure to complete the daily dairies over the duration of the 6 week trial and return the used blister pack to the examining clinician at the final consultation would be taken as to non-compliance with the trial protocol. The diary requirement was included as part of patient assessment for the duration of the trial because of the known non-compliance of patients taking oral medications over extended periods of time (van Berge Henegouwen MTH, van Driel H F, Kasteleijn-Nolst DGA. A patient diary as a tool to improve medicine compliance. Pharm World Sci. 1999; 21: 21-24, Farmer K C, Methods for measuring and monitoring medication regimen adherence in clinical trials and clinical practice. Clinical […]
# At the commencement of the trial details of the patient's age, height, weight, location of the most painful joints, duration of symptoms and grade of OA were recorded. […]
# [1] = 223 cases in the United States, FDA memorandum 2005; cited from earlier work
# [2] = test system: patients with OA of the hand and knee; experiment: Double-blind comparator clinical trial, hand and knee OA combined (Example 7); assay type: in vivo, human; settings: daily for 6 weeks
# Source text: as §1, §2, §4
# The same clinical parameters that were determined for all patients at baseline were assessed at the final examination six weeks later. The patient's diaries and blister packs returned were also examined and the number of supplementary analgesics they consumed was recorded. Any adverse side effects noted over the duration of the trial were also recorded. […]
# patients with knee OA = experiment: Double-blind comparator clinical trial Pentabrex vs celecoxib, knee OA (Example 7); assay type: in vivo, human
# Source text: as §1, §2, §3, §4
# For patients with OA of the knee joints their VAS pain scores were determined for their pain at rest, pain on walking and early morning stiffness. […]
# [3] = test system: patients with bone marrow lesions (oedema) diagnosed by MRI; settings: PPS administered systemically (IM or SC); cited from earlier work
# [4] = test system: leukocytes isolated from the blood of these patients; settings: seven days after NaPPS administration, cited from earlier work
# [5] = single oral dose [3H]PPS with 300 or 450 mg un-labelled PPS; healthy female subjects; cited from earlier work
# [6] = test system: Japanese patients with mild knee OA; settings: weekly subcutaneous 2 mg/kg NaPPS over 6 weeks; assessed to 52 weeks; cited from earlier work
# [7] = test system: postmenopausal women with mild to moderate osteoarthritis; settings: cited from earlier work
# [8] = test system: elderly subjects with high blood viscosity and filterability; settings: 15 elderly subjects; IM 50 mg NaPPS twice daily for a week; cited from earlier work
# [9] = test system: patients with symptomatic knee OA; settings: NaPPS 3 mg/kg, 4 weekly IM injections, cited from earlier work
# [10] = Pentabrex 350 mg or celecoxib 175 mg daily for 6 weeks
# [11] = Pentabrex n = 5, celecoxib n = 4, daily for 6 weeks
# [12] = Pentabrex n = 5, celecoxib n = 9, daily for 6 weeks
compound,measurement,setting,value
"Cc1ccc(-c2cc(C(F)(F)F)nn2-c2ccc(S(N)(=O)=O)cc2)cc1 [Celecoxib, 4-[5-(4-methylphenyl)-3-(trifluoromethyl)pyrazol-1-yl] benzene sulfonamide]","Negative response, % of patients",patients with hand OA; [10],75%
same,"Positive response, % of patients",patients with hand OA; [10],25%
same,"Negative response, number of patients",patients with hand OA; [11],3
same,"Positive response, number of patients",patients with hand OA; [11],1
same,thrombotic or embolic events associated with the drug,[1],102 cases
same,"Negative response, % of patients",[2],38.46%
same,"Negative response, number of patients",[2],5
same,"Positive response, % of patients",[2],61.54%
same,"Positive response, number of patients",[2],8
same,"Negative response, % of patients",patients with knee OA; [10],23.33%
same,"Positive response, % of patients",patients with knee OA; [10],77.77%
same,"Negative response, number of patients",patients with knee OA; [12],2
same,"Positive response, number of patients",patients with knee OA; [12],7
"CS(=O)(=O)c1ccc(C2=C(c3ccccc3)C(=O)OC2)cc1 [rofecoxib, 4-(4-methylsulfonylphenyl)-3-phenyl-5H-furan-2-one]",thrombotic or embolic events associated with the drug,[1],99 cases
CCc1cccc2c3c([nH]c12)C(CC)(CC(=O)O)OCC3 (stereo not drawn) [etodolac],thrombotic or embolic events associated with the drug,[1],22 cases
"[2R,3R,4S,5R)-2-hydroxy-5-[(2S,3R,4S,5R)-5-hydroxy-3,4-disulfo-oxyoxan-2-yl]oxy-3-sulfooxyoxan-4-yl] hydrogen sulfate [NaPPS]",bone marrow lesions (oedema) and accompanying pain,[3],resolved the bone marrow lesions (oedema) and accompanying pain
same,concentrations of arachidonic acid-derived lipoxygenase (LOX) metabolites released from the cells,[4]; compared to leukocytes collected before,significantly decreased
same,prostaglandin metabolites generated by the COX pathways,[4]; non-stimulated leukocytes,increased
same,administered dose excreted in the faeces as intact PPS,[5],84%
same,administered dose excreted in urine in a depolymerized form,[5],6%
same,"joint swelling, knee flexion, pain while walking and stair climbing",[6],improved significantly
same,peripheral blood mononuclear cell procoagulant activity (MPA),"[7]; 3 mg/kg NaPPS IM, 24 hours after administration",significantly reduced to within the normal range
same,"Plasma concentrations of lipoprotein lipase, hepatolipase, and superoxide dismutase","[7]; 3 mg/kg NaPPS IM, between 2 and 4 hours after administration",significantly elevated
same,patients reporting significant clinical improvement of their symptoms,"[7]; 4 weekly IM injections of 3 mg/kg, for up to 12 weeks after the last injection",11
same,blood viscosity and filterability,[8],significant reduction
same,"pain on walking and other physical activities, such as stair climbing",[9],significantly improved
same,joint pain at rest relative to placebo controls,[9]; maintained for 20 weeks after cessation,significantly improvement
